Test results as given in patent US20210274823A1, “NOVEL TRITERPENE-GLYCOSIDES AS SWEETENERS OR SWEETENER ENHANCER” (priority 2017, published 2021).

Experiment: Organoleptic test of the compounds of formula (I) against sucrose
Design: key to sweetness compared to sucrose: 3: sweeter than the control solution; 2: sweetness comparable with the control solution; 1: less sweet than the control solution but still sweet
Details: panel of 3-4 panelists; for sweetness compared to sucrose: test compound dissolved in water (Evian) at 400 ppm, control sucrose 20 g/l; for Comment (taste impression): test compound dissolved in water at 400 ppm
Procedure: The isolated pure compounds were dissolved in non-carbonated mineral water (“Evian”) in a concentration of 0.4 mg/ml (400 ppm). The sweet taste of each sample was compared by a panel of 3-4 panelists with a solution of sucrose in a concentration of 20 g/l.

| Compound | sweetness compared to sucrose | Comment (taste impression) |
| --- | --- | --- |
| CC(C)(/C=C/C[C@@](C)(O[C@@H]1O[C@H](CO)[C@@H](O)[C@H](O)[C@H]1O)[C@H]1CC[C@]2(C)[C@@H]1[C@H](O)C[C@@H]1[C@@]3(C)C[C@@H](O)[C@H](O[C@@H]4O[C@H](CO)[C@@H](O)[C@H](O)[C@H]4O[C@@H]4O[C@H](CO)[C@@H](O)[C@H](O)[C@H]4O)C(C)(C)[C@@H]3CC[C@]12C)OO (stereo in doubt) [Compound E] | 3 | – |
| CC(C)=CCC[C@](C)(O[C@@H]1O[C@H](CO[C@@H]2OC[C@@H](O)[C@H](O)[C@H]2O)[C@@H](O)[C@H](O)[C@H]1O)[C@H]1CC[C@]2(C)[C@@H]1[C@H](O)CC1[C@@]3(C)C[C@@H](O)[C@H](O[C@@H]4O[C@H](CO)[C@@H](O)[C@H](O)[C@H]4O[C@@H]4O[C@H](CO)[C@@H](O)[C@H](O)[C@H]4O)C(C)(C)C3CC[C@]12C (stereo partly drawn) [Compound A] | 2 | Slightly hot |
| CC(C)=CCC[C@](C)(O[C@@H]1O[C@H](CO)[C@@H](O)[C@H](O)[C@H]1O)[C@H]1CC[C@]2(C)[C@@H]1[C@H](O)CC1[C@@]3(C)C[C@@H](O)[C@H](O[C@@H]4O[C@H](CO)[C@@H](O)[C@H](O)[C@H]4O[C@@H]4O[C@H](CO)[C@@H](O)[C@H](O)[C@H]4O)C(C)(C)C3CC[C@]12C (stereo partly drawn) [Compound B] | 3 | Slightly bitter |
| C=C(C)C(CC[C@](C)(O[C@@H]1O[C@H](CO[C@@H]2OC[C@@H](O)[C@H](O)[C@H]2O)[C@@H](O)[C@H](O)[C@H]1O)[C@H]1CC[C@]2(C)[C@@H]1[C@H](O)CC1[C@@]3(C)C[C@@H](O)[C@H](O[C@@H]4O[C@H](CO)[C@@H](O)[C@H](O)[C@H]4O[C@@H]4O[C@H](CO)[C@@H](O)[C@H](O)[C@H]4O)C(C)(C)C3CC[C@]12C)OO (stereo partly drawn) [Compound C] | 2 | – |
| CC(C)(O)/C=C/C[C@](C)(O[C@@H]1O[C@H](CO)[C@@H](O)[C@H](O)[C@H]1O)[C@H]1CC[C@]2(C)C1[C@H](O)CC1[C@@]3(C)C[C@@H](O)[C@H](O[C@@H]4O[C@H](CO)[C@@H](O)[C@H](O)[C@H]4O[C@@H]4O[C@H](CO)[C@@H](O)[C@H](O)[C@H]4O)C(C)(C)C3CC[C@]12C (stereo partly drawn) [Compound D] | 3 | – |
| CC(C)(/C=C/C[C@](C)(O[C@@H]1O[C@H](CO[C@@H]2OC[C@@H](O)[C@H](O)[C@H]2O)[C@@H](O)[C@H](O)[C@H]1O)[C@H]1CC[C@]2(C)C1[C@H](O)CC1[C@@]3(C)C[C@@H](O)[C@H](O[C@@H]4O[C@H](CO)[C@@H](O)[C@H](O)[C@H]4O[C@@H]4O[C@H](CO)[C@@H](O)[C@H](O)[C@H]4O)C(C)(C)C3CC[C@]12C)OO (stereo partly drawn) [Compound G] | 2 | Slightly bitter |
| CC(C)=CCC[C@](C)(O[C@@H]1O[C@H](CO)[C@@H](O)[C@H](O)[C@H]1O)[C@H]1CC[C@]2(C)[C@@H]1[C@H](O)CC1[C@@]3(C)C[C@@H](O)[C@H](O[C@@H]4O[C@H](COC5OCC(O)C(O)C5O)[C@@H](O)[C@H](O)[C@H]4O[C@@H]4O[C@H](CO)[C@@H](O)[C@H](O)[C@H]4O)C(C)(C)C3CC[C@]12C (stereo partly drawn) [Compound H] | 3 | Slightly bitter |
| C=C(C)C(O)CC[C@](C)(O[C@@H]1O[C@H](CO[C@@H]2OC[C@@H](O)[C@H](O)[C@H]2O)[C@@H](O)[C@H](O)[C@H]1O)[C@H]1CC[C@]2(C)[C@@H]1[C@H](O)CC1[C@@]3(C)C[C@@H](O)[C@H](O[C@@H]4O[C@H](CO)[C@@H](O)[C@H](O)[C@H]4O[C@@H]4O[C@H](CO)[C@@H](O)[C@H](O)[C@H]4O)C(C)(C)C3CC[C@]12C (stereo partly drawn) [Compound I] | 2 | – |
| CC1(C)C2CC[C@]3(C)C(C[C@@H](O)[C@@H]4[C@@H]([C@](C)(CCCO)O[C@@H]5O[C@H](CO)[C@@H](O)[C@H](O)[C@H]5O)CC[C@]43C)[C@@]2(C)C[C@@H](O)[C@@H]1O[C@@H]1O[C@H](CO)[C@@H](O)[C@H](O)[C@H]1O[C@@H]1O[C@H](CO)[C@@H](O)[C@H](O)[C@H]1O (stereo partly drawn) [Compound J] | 2 | – |
| CC(CO)C(=O)CC[C@](C)(O[C@@H]1O[C@H](CO)[C@@H](O)[C@H](O)[C@H]1O)[C@H]1CC[C@]2(C)[C@@H]1[C@H](O)CC1[C@@]3(C)C[C@@H](O)[C@H](O[C@@H]4O[C@H](CO)[C@@H](O)[C@H](O)[C@H]4O[C@@H]4O[C@H](CO)[C@@H](O)[C@H](O)[C@H]4O)C(C)(C)C3CC[C@]12C (stereo partly drawn) [Compound K] | 3 | – |
| CC(CO)C(=O)CC[C@](C)(O[C@@H]1O[C@H](CO)[C@@H](O)[C@H](O)[C@H]1O)[C@H]1CC[C@]2(C)[C@@H]1[C@H](O)CC1[C@@]3(C)C[C@@H](O)[C@H](O[C@@H]4O[C@H](CO)[C@@H](O)[C@H](O)[C@H]4O[C@@H]4O[C@H](CO)[C@@H](O)[C@H](O)[C@H]4O)C(C)(C)C3CC[C@]12C (stereo partly drawn) [Compound L] | 2 | – |
